In patent publication US12570661B2, “Isoform-specific aldehyde dehydrogenase inhibitors” (The Board of Trustees of the Leland Stanford Junior …, priority 2020, dated 2026):

What was measured:
ALDH1B1 [1] = target: T1, ALDH1B1 (Homo sapiens, UniProt P30837); test: ALDEFLUOR assay of cellular ALDH1B1 activity in ALDH1B1-transfected ALDH1A3−/− A375 cells; assay type: cell-based; conditions: ALDEFLUOR, ALDH1B1-overexpressing ALDH1A3−/− A375 cells; read-out: ALDH1B1(in cellulo) IC50
T1 sequence (P30837 18-517): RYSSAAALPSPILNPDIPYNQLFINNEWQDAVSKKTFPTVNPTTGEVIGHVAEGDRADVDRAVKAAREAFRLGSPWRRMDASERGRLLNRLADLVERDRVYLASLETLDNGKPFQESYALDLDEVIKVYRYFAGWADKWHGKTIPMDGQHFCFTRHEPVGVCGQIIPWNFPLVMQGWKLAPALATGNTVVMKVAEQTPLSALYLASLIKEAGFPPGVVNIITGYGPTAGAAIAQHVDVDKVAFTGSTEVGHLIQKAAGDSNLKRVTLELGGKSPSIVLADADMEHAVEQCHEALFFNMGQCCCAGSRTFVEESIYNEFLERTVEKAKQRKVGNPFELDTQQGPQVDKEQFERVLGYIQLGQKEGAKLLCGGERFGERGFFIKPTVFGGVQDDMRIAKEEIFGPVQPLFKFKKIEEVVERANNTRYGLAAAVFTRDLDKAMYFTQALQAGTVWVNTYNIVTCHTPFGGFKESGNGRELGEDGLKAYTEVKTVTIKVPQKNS
Method: ALDH1A3^−/− A375 cells were seeded into a 6-well plate at a density of 5×10^5 cells/well and cultured for 24 h. The cells were then transfected with either pCMV6-entry, pCMV6-GFP (Addgene, plasmid 11153), or pCMV-ALDH1B1. After 24 h, the media was replaced and transfection efficiencies were estimated by the EGFP-positive cells in the pCMV-GFP-transfected well. The cells were cultured for another 24 h and their ALDH activities were quantified using the ALDEFLUOR assay. Briefly, the cells were isolated from the plate with trypsin and resuspended in ALDEFLUOR assay buffer (STEMCELL Technologies) at a concentration of 4×10^5 cells/mL. Each ALDEFLUOR assay used 0.5 mL of this cell suspension, and the cells were treated with individual compounds for 15 min at 37° C. and 5% CO2. The cell suspensions were then treated with 2.5 μL ALDEFLUOR reagent and incubated for an additional 30 min at 37° C. and 5% CO2. The cells were then collected by centrifugation (450×g) for 5 min at room temperature, resuspended in 200 μL assay buffer, and analyzed with an LSR II flow cytometer (BD Biosciences) at the Stanford FACS facility.

NIH-3T3 cells = test: Seahorse oxygen-consumption-rate assay (NIH3T3); assay type: cell-based, murine; conditions: Mus musculus
ALDH1B1 [2] = target: T1, ALDH1B1; test: ALDH1B1 enzyme kinetics assay (NADH fluorescence, acetaldehyde substrate); assay type: biochemical; design: made in house; host or cells: E. coli BL21 (optionally co-expressed with GroEL/GroES); conditions: for IC50: 1 μg/mL enzyme, 1 mM acetaldehyde, 1 mM NAD+, read-out: ALDH1B1(in vitro) IC50
Method: Cloning, expression, and purification of human recombinant ALDH1A1, ALDH1A3, ALDH2, ALDH3A1, ALDH3A2, ALDH4A1, ALDH5A1 and ALDH7A1 isozymes were conducted as described previously (Chen, C. H. et al. (2015) Proc. Natl. Acad. Sci. U.S.A. 112, 3074-3079). Human ALDH1A2 (Origene, SC109995) and ALDH1B1 (T. Hurley, Indiana University) plasmids were cloned into the pET-15b expression vector (Novagen, 69661-3) containing an N-terminal hexahistidine tag. The mitochondria-targeting sequence of ALDH1B1 was also removed. For protein expression without chaperones, the pET-15b based plasmids were transformed into competent BL21 E. coli cells, which were subsequently grown in 1 L of Luria-Bertani medium containing 100 μg/mL ampicillin at 37° C. Once the OD600 value reached 0.6, the culture was transferred to 16° C. and 0.5 mM isopropyl β-d-1-thiogalactopyranoside was introduced to induce protein expression overnight. The bacteria were then pelleted by centrifugation (3000×g, 4° C. for 30 rain) and harvested. 40 mL BugBuster Master Mix buffer (MilliporeSigrna) containing a protease inhibitor cocktail (cOmplete; Roche) was added, and the cells were lysed by mechanically rolling the suspension at room temperature for 25 min. The lysate was centrifuged (16000×g, 4° C. for 30 min), and the soluble fraction was collected and mixed with 2 mL of Ni-NTA Superflow resin (Qiagen). After the mixture was avowed to rock at 4° C. for 1 h, it was used to create a 10-mL gravity column, which was sequentially treated with 40 mL of wash buffer 1 (20 mM sodium phosphate, 500 mM NaCl, 1 mM DTT, 20 mM imidazole, 5% glycerol, pH 7.4) and 25 mL of wash buffer 2 (20 mM sodium phosphate, 500 mM NaCl, 1 mM DTT, 40 mM imidazole, 5% glycerol, pH 7.4). The hexahistidine-tagged protein was then recovered by treated the column with 5 mL elution buffer (20 mM sodium phosphate, 500 mM NaCl, 1 mM DTT, 400 mM imidazole, 5% glycerol, pH 7.4) and collecting 500-μL fractions. The protein concentration for each fraction was measured (500 μL elution volume was collected as one fraction and was immediately mixed with 500 μL glycerol. The protein concentration for each fraction was measured (600 nm Protein Assay Reagent; Thermo Fisher Scientific), and protein-containing fractions were diluted with an equal volume of glycerol and stored at −80° C. Samples from each step were also collected for SDS-PAGE gel analysis. For ALDH1B1 protein co-expression with chaperones, pET-15b-ALDH1B1 and GroEL/GroES (Addgene, plasmid pBB541) plasmids were co-transformed into competent BL21 E. coli cells, which were subsequently grown in 1 L of Luria-Bertani medium containing 100 μg/mL ampicillin and 50 μg/mL spectinomycin at 37° C. The hexahistidine-tagged ALDH1B1 protein was then expressed and purified as described above.
To evaluate compound activities against ALDH isoforms, reaction mixtures consisting of enzyme assay buffer (100 mM sodium phosphate, 1 mM MgCl2, pH 8.0) and 0.1% DMSO, 1 mM β-mercaptoethanol, 1 mM NAD^+, and the bacterially expressed protein were prepared in white opaque 96-well assay plates (100 μL/well, flat-bottom and non-treated; Corning Costar). 5 μg/mL ALDH enzyme was used for single-dose (1, 10, 50 μM) compound test, and 1 μg/mL ALDH enzyme was used for IC50s determination. Acetaldehyde was then added to each well to achieve an initial substrate concentration of 1 mM, and the resulting enzymatic activity was measured based on NADH fluorescence. The fluorescence signal was read over the course of 10 min on a SpectraMax M2e microplate reader (340-nm excitation and 460-nm emission; Molecular Devices) operated by SoftMax Pro software. Compound activities were normalized to a DMSO control, and dose-response inhibition curves were fitted with four-parameter non-linear regression using Prism software. […]

ALDH1A3 = target: T2, ALDH1A3 (Homo sapiens, UniProt P47895); test: ALDH1A3 enzyme kinetics assay; assay type: biochemical; conditions: enzyme kinetics assays, 1-μM dose
T2 construct: made in house
T2 sequence (P47895 1-512): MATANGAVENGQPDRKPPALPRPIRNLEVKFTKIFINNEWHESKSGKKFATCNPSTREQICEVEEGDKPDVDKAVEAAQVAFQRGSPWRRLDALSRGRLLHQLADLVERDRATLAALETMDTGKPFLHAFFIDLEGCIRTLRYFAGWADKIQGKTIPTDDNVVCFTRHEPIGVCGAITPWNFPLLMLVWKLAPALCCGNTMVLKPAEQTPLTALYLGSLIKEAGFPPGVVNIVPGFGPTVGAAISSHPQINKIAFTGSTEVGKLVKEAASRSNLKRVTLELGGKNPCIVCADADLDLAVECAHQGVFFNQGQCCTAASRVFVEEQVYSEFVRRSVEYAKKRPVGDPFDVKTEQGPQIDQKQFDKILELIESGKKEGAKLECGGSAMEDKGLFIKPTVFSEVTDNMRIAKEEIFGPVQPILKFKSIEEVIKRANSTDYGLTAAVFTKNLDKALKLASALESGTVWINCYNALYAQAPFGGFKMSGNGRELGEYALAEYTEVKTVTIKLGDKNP
Method: (§1) Cloning, expression, and purification of human recombinant ALDH1A1, ALDH1A3, ALDH2, ALDH3A1, ALDH3A2, ALDH4A1, ALDH5A1 and ALDH7A1 isozymes were conducted as described previously (Chen, C. H. et al. (2015) Proc. Natl. Acad. Sci. U.S.A. 112, 3074-3079). Human ALDH1A2 (Origene, SC109995) and ALDH1B1 (T. Hurley, Indiana University) plasmids were cloned into the pET-15b expression vector (Novagen, 69661-3) containing an N-terminal hexahistidine tag. The mitochondria-targeting sequence of ALDH1B1 was also removed. […] The protein concentration for each fraction was measured (500 μL elution volume was collected as one fraction and was immediately mixed with 500 μL glycerol. The protein concentration for each fraction was measured (600 nm Protein Assay Reagent; Thermo Fisher Scientific), and protein-containing fractions were diluted with an equal volume of glycerol and stored at −80° C. Samples from each step were also collected for SDS-PAGE gel analysis. For ALDH1B1 protein co-expression with chaperones, pET-15b-ALDH1B1 and GroEL/GroES (Addgene, plasmid pBB541) plasmids were co-transformed into competent BL21 E. coli cells, which were subsequently grown in 1 L of Luria-Bertani medium containing 100 μg/mL ampicillin and 50 μg/mL spectinomycin at 37° C. […]

[3] = test system: 5-FU-resistant SW480 cells; test: Spheroid growth of 5-FU-resistant versus parental SW480 cells; assay type: cell-based, human; conditions: spheroid culture
Method: The parental SW480 cells were cultured in RPMI-1640 medium containing 10% FBS, 100 U/mL penicillin, 100 μg/mL streptomycin, and 1 μM 5-FU for two weeks. The 5-FU concentration in the culture medium was then increased to 5 μM and after another two weeks raised further to 10 μM. The resulting 5-FU-resistant SW480 cells were maintained in culture medium with 10 μM 5-FU.
To prepare Matrigel-coated culture plates, 96-well and 24-well plates were placed on ice and coated with 25 μL or 300 μL, respectively, of Matrigel matrix (Corning, LDEV-free) that had been thawed overnight at 4° C. The plates were then placed in a 37° C. incubator for 30 min to allow the Matrigel to solidify. […]
SW480 or HCT116 cells were seeded into regular or Matrigel-coated 96-well plates at a density of 1000 cells/well. […] Each culture was maintained for 7 days, and then cell viabilities were measured using a CellTiter-Glo 3D Cell Viability Assay kit (Promega). […] A 150-μL aliquot from each well was then transferred into a white opaque 96-well assay plate (flat-bottom and non-treated; Corning Costar) and luminescence intensities were measured with a Veritas microplate luminometer (Turner BioSystems).

SW480 cells (adherent) = test: Cell viability assay, adherent SW480 cultures; assay type: cell-based, human; conditions: Homo sapiens, SW480, 168 h; adherent culture, 7 days
Method: SW480 or HCT116 cells were seeded into regular or Matrigel-coated 96-well plates at a density of 1000 cells/well. The cells were cultured in the corresponding adherent or spheroid culture medium (200 μL/well) containing the designated compounds or an equivalent amount of DMSO vehicle. Each culture was maintained for 7 days, and then cell viabilities were measured using a CellTiter-Glo 3D Cell Viability Assay kit (Promega). Briefly, 100 μL of the culture medium was removed from each well and replaced with 100 μL 3D Cell Assay reagent. The cells in each well were next homogenized by vigorous pipetting, and the plate was incubated for 10 min at room temperature to stabilize the chemiluminescent signal. A 150-μL aliquot from each well was then transferred into a white opaque 96-well assay plate (flat-bottom and non-treated; Corning Costar) and luminescence intensities were measured with a Veritas microplate luminometer (Turner BioSystems).

[4] = HEK-293T cytotoxicity (cell viability) assay; assay type: cell-based; conditions: human, HEK-293T cells; adherent HEK-293T, 4-5 days, CellTiter-Glo; read-out: HEK293T GI50
Method: HEK-293T cells were seeded into a 96-well plate at a density of 5×10^3 cells/well and treated with varying concentrations of selected compounds or an equivalent amount of DMSO vehicle. The cells were cultured for 4-5 days without a media change, and after the DMSO-treated cells approached 100% confluence, the cell viabilities were measured using a CellTiter-Glo 3D Cell Viability Assay kit (Promega) and a Veritas microplate luminometer (Turner BioSystems) as described above.

ALDH2 = target: T3, ALDH2 (Homo sapiens, UniProt P05091); test: ALDH2 enzyme kinetics assay; assay type: biochemical; conditions: 50-μM compound concentration
T3 construct: made in house
T3 sequence (P05091 18-517): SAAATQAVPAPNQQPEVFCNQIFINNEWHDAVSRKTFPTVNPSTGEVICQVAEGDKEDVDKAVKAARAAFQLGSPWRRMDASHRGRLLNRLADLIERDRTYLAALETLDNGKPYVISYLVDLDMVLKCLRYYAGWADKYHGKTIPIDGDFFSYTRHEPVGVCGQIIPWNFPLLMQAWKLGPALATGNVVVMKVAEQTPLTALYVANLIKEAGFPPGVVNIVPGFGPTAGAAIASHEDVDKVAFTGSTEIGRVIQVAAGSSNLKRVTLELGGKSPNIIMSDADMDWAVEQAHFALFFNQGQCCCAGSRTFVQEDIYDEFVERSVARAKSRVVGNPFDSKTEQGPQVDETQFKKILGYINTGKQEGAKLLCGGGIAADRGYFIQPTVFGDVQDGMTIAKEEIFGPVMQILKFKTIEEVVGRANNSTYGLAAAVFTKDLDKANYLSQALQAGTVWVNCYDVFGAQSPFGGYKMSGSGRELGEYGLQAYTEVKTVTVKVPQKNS
Method: as §1

CCOc1ccc(N2C=C(c3ccc(-c4ccccc4)cc3)N3CCCCN=C32)cc1 [Guanidine 73]
IC50 (ALDH1B1 [1]): 6700 nM | IC50 (NIH-3T3 cells): 2400 nM | IC50 (ALDH1B1 [2]): 1900 nM

COc1ccccc1-n1cc(-c2ccc(-c3ccc([N+](=O)[O-])cc3)cc2)[n+]2c1CCCCC2.[Br-] [Imidazolium 10]
ALDH1A3 inhibition / isoform selectivity (in words) (ALDH1A3): inhibitor of both ALDH1B1 and ALDH1A3 | ALDH1B1 inhibition / isoform selectivity (in words) (ALDH1B1 [2]; enzyme kinetics assays against ALDH isoforms): inhibitor of both ALDH1B1 and ALDH1A3

O=c1[nH]cc(F)c(=O)[nH]1 [Compound 5-FU, 5-fluorouracil]
loss of sensitivity of 5-FU-resistant SW480 line versus parental line [3]: 50 fold

c1ccc(-c2ccc(-c3cn(C4CCCCC4)c4[n+]3CCCCC4)cc2)cc1 [Imidazolium 53]
IC50 (NIH-3T3 cells): 170 nM | GI50 (SW480 cells (adherent)): 820 nM

COc1ccccc1N1C=C(c2ccc(-c3ccccc3)cc2)N2CCCCN=C21 [HPI-269]
IC50 (ALDH1B1 [1]): 110 nM | GI50 [4]: 3400 nM | IC50 (NIH-3T3 cells): 580 nM | IC50 (ALDH1B1 [2]): 81 nM

C#CCOc1ccc(-n2cc(-c3ccc(N=[N+]=[N-])cc3)[n+]3c2CCCCC3)cc1 [Imidazolium 3]
inhibition of ALDH2 activity (ALDH2): only partially suppressed

CCOc1ccc(-n2cc(-c3ccc(-c4ccc(C(=O)OC)cc4)cc3)[n+]3c2CCCCC3)cc1 [Imidazolium 46]
ALDH1A3 inhibition / isoform selectivity (in words) (ALDH1A3): ALDH1A3-specific inhibitor
